Results from EP0479665A2, “1,4-Dihydropyridine derivatives, method for preparing the same and use thereof” (TEIKOKU CHEMICAL INDUSTRIES CO., LTD., priority 1990, dated 1992).
Counter-ions that a name gives are not always drawn. Like-named read-outs stand apart in the source and are kept apart here. Marks after values point to notes of the source that are not given here.

Columns and labels:
[1] = tested on: spontaneously hypertensive rats; assay: Antihypertensive action, tail-cuff method, single oral dose; type: in vivo; conditions: difference in blood pressure before and after administration; 10 mg/kg oral; an hour after the administration; two rats
Experimental: Measurement was conducted an hour after the administration. […] The antihypertensive action of each of […] nicardipine was also measured for comparison.

thoracic aorta = assay: Calcium antagonism: relaxation of thoracic aorta helical strips contracted with hyperpotassium solution; type: cell-based, rabbit; conditions: Oryctolagus cuniculus; concentration for 50 % relaxation; hyperpotassium solution (50 mM); relaxation with 10^-4 M papaverine defined as 100 %; read-out: Measured Value (IC50)
Experimental: A thoracic aorta was removed from a rabbit to obtain a helical strips (width: 3 mm; length: 30 mm). This strip was suspended under a load of 0.5 g in a Magnus tube filled with Krebs-Henseleit solution. Subsequently, the Krebs-Henseleit solution was replaced with hyperpotassium solution (50 mM) to contract the strip. The strip was then left to stand until the contraction was stabilized. Thereafter, the compounds obtained in Examples 18, 19 and 20 and dissolved in ethanol-distilled water were added to the strip.
The concentration (IC50) of each compound required for obtaining relaxation of 50 % was measured. It is to be noted that the relaxation of a strip treated with 10-^4M papaverine was defined to 100 %.

in vivo = conditions: oral, after a fast, 4-week old mouse, read-out: Toxicity (LD50)
Experimental: After a fast, a ddy-mouse (4-week old) was orally given a solution obtained by dissolving and/or suspending the compound in each Example 18, 19 and 20 in dimethylsulfoxide (DMSO) or carboxymethylcellulose (CMC). The value of LD50 was calculated from the mortality.

[2] = tested on: spontaneously hypertensive rats; assay: Antihypertensive action regarding administration amount, tail-cuff method; type: in vivo; conditions: for ED (40 mmHg decrease): Rattus norvegicus, read-out: ED-40 mmHg; for T1/2(dose): time for recovery to 50 % of maximal effect (index of persistence)
Experimental: Ten spontaneously hypertensive rats (10 - 20 week old) were used for this test. Blood pressure was measured in accordance with tail-cuff method by employing a blood pressure gauge for small animals UR-1000 (manufactured by Ueda Works, Ltd., Japan). […] The amount of each compound required for lowering the blood pressure of 40 mmHg decrease in blood pressure was calculated from the relationship between the administration amount and the blood pressure after adiministration (lowermost blood pressure). This amount was defined as ED-40 mmHg for serving as an index of antihypertensive action. Tz was shown as the time required for recovery to 50 % of maximal […]. This value was used for an index of persistence.

[3] = oral amount for a 40 mmHg decrease in blood pressure, suspended in 0.5 % carboxymethylcellulose, ten rats

Compound | Antihypertensive Action [1] [mmHg] | other results
COC(=O)C1=C(C)NC(C)=C(C(=O)OCC2(CN(C)Cc3ccccc3)CCCCC2)C1c1cc([N+](=O)[O-])ccc1F (racemic) [Example 8] | -140 | 
CCOC(=O)C1=C(C)NC(C)=C(C(=O)OCC2(CN(C)C)CCCCC2)C1c1cccc([N+](=O)[O-])c1 (racemic) [Example 7] | -61 | 
COC(=O)C1=C(C)NC(C)=C(C(=O)OCCN2CCN(C(c3ccccc3)c3ccccc3)CC2)C1c1cccc([N+](=O)[O-])c1 (stereo not drawn) [Manidipine, reference compound] |  | IC50 (thoracic aorta): 27 nM; LD50 (in vivo; medium CMC): 200 mg/kg; ED (40 mmHg decrease) [2, 3]: 1.7 mg/kg; T1/2(dose) ([2]; oral dose 3 mg/kg): 5.0 hr(3 mg/kg)*
CCOC(=O)C1=C(C)NC(C)=C(C(=O)OCC2(CN(C)Cc3ccccc3)CCCCC2)C1c1cccc([N+](=O)[O-])c1 (racemic) [Example 6, 1,4-dihydro-2,6-dimethyl-4-(3'-nitrophenyl)-3,5-pyridinedicarboxylic acid 1-(N-benzyl-N-methylaminomethyl)cyclohexylmethyl ethyl ester] | -110 | 
COC(=O)C1=C(C)NC(C)=C(C(=O)OCC2(CN3CCN(Cc4ccccc4)CC3)CCCCC2)C1c1cccc([N+](=O)[O-])c1 (racemic) [Example 10] | -110 | 
COC(=O)C1=C(C)NC(C)=C(C(=O)OCC2(CN3CCCCC3)CCCCC2)C1c1cccc([N+](=O)[O-])c1 (single isomer, unassigned; (+)) [Example 19, (+)-1,4-dihydro-2,6-dimethyl-4-(3'-nitro-phenyl)-3,5-pyridinedicarboxylic acid methyl (1-piperidinylmethylcyclohexyl)methyl ester hydrochloride] | -75 | IC50 (thoracic aorta): 1.5 nM; LD50 (in vivo; medium DMSO): 100 mg/kg; ED (40 mmHg decrease) [2, 3]: 0.5 mg/kg; T1/2(dose) ([2]; oral dose 3 mg/kg): >6.0 hr(3 mg/kg)*
COC(=O)C1=C(C)NC(C)=C(C(=O)OCC2(CN(C)C)CCCCC2)C1c1cccc([N+](=O)[O-])c1 (single isomer, unassigned) [Example 21] | -53 | 
COC(=O)C1=C(C)NC(C)=C(C(=O)OCC2(CN(C)Cc3ccc(F)cc3)CCCCC2)C1c1cccc([N+](=O)[O-])c1 (single isomer, unassigned) [Example 26] | -111 | 
COC(=O)C1=C(C)NC(C)=C(C(=O)OCC2(CN3CCN(c4ccccc4)CC3)CCCCC2)C1c1cccc([N+](=O)[O-])c1 (racemic) [Example 3, 1,4-dihydro-2,6-dimethyl-4-(3'-nitrophenyl)-3,5-pyridinedicarboxylic acid methyl 1-(4-phenylpiperazinylmethyl)cyclohexylmethyl ester dihydrochloride.1/2 acetone adduct] | -109 | 
CCN(CC)CC1(COC(=O)C2=C(C)NC(C)=C(C(=O)OC)C2c2cccc([N+](=O)[O-])c2)CCCCC1 (racemic) [Example 13] | -108 | 
COC(=O)C1=C(C)NC(C)=C(C(=O)OCC2(CN3CCN(c4ccccc4)CC3)CCCCC2)C1c1cccc([N+](=O)[O-])c1 (single isomer, unassigned; (+)) [Example 20, (+)-1,4-dihydro-2,6-dimethyl-4-(3'-nitro-phenyl)-3,5-pyridinedicarboxylic acid methyl 1-(4-phenylpiperazinylmethyl)cyclohexylmethyl ester dihydrochloride] | -129 | IC50 (thoracic aorta): 420 nM; LD50 (in vivo; medium CMC): 290 mg/kg; ED (40 mmHg decrease) [2, 3]: 0.3 mg/kg; T1/2(dose) ([2]; oral dose 1 mg/kg): >6.0 hr(1 mg/kg)*
COC(=O)C1=C(C)NC(C)=C(C(=O)OCC2(CN3CCN(Cc4ccccc4)CC3)CCCCC2)C1c1cccc([N+](=O)[O-])c1 (single isomer, unassigned) [Example 25] | -98 | 
CC1=C(C(=O)OCC2(CN(C)C)CCCCC2)C(c2cccc([N+](=O)[O-])c2)C(C(=O)OC(C)C)=C(C)N1 (racemic) [Example 5] | -68 | 
CCN(Cc1ccccc1)CC1(COC(=O)C2=C(C)NC(C)=C(C(=O)OC)C2c2cccc([N+](=O)[O-])c2)CCCCC1 (single isomer, unassigned) [Example 27] | -109 | 
COC(=O)C1=C(C)NC(C)=C(C(=O)OCC2(CN3CCOCC3)CCCCC2)C1c1cccc([N+](=O)[O-])c1 (racemic) [Example 12] | -113 | 
COC(=O)C1=C(C)NC(C)=C(C(=O)OCC2(CN(C)Cc3ccc(Cl)cc3)CCCCC2)C1c1cccc([N+](=O)[O-])c1 (single isomer, unassigned) [Example 22] | -122 | 
COC(=O)C1=C(C)NC(C)=C(C(=O)OCC2(CN3CCN(C(c4ccccc4)c4ccccc4)CC3)CCCCC2)C1c1cccc([N+](=O)[O-])c1 (racemic) [Example 17] | -112 | 
COC(=O)C1=C(C)NC(C)=C(C(=O)OC)C1c1ccccc1[N+](=O)[O-] [Nifedipine, nifedipine, reference compound] | -58 | IC50 (thoracic aorta): 29 nM; ED (40 mmHg decrease) ([2]; po): 3.3 mg/kg
COC(=O)C1=C(C)NC(C)=C(C(=O)OCC2(CN(C)Cc3ccccc3)CCCCC2)C1c1cccc([N+](=O)[O-])c1.Cl (single isomer, unassigned; (+)) [Example 18, (+)-1,4-dihydro-2,6-dimethyl-4-(3'-nitro-phenyl)-3,5-pyridinedicarboxylic acid 1-(N-benzyl-N-methylaminomethyl)cyclohexylmethyl methyl ester hydrochloride] | -96 | IC50 (thoracic aorta): 100 nM; LD50 (in vivo; medium DMSO): 130 mg/kg; ED (40 mmHg decrease) [2, 3]: 0.7 mg/kg; T1/2(dose) ([2]; oral dose 3 mg/kg): >6.0 hr(3 mg/kg)*
COC(=O)C1=C(C)NC(C)=C(C(=O)OCC2(CN(C)Cc3ccc(F)cc3)CCCCC2)C1c1cccc([N+](=O)[O-])c1 (racemic) [Example 15] | -114 | 
COC(=O)C1=C(C)NC(C)=C(C(=O)OCC2(CN(C)Cc3ccccc3)CCCCC2)C1c1cccc([N+](=O)[O-])c1.Cl (racemic) [Example 1, 1,4-dihydro-2,6-dimethyl-4-(3'-nitrophenyl)-3,5-pyridinedicarboxylic acid 1-(N-benzyl-N-methylaminomethyl)cyclohexylmethyl methyl ester hydrochloride] | -131 | 
COC(=O)C1=C(C)NC(C)=C(C(=O)OCC2(CN3CCN(C)CC3)CCCCC2)C1c1cccc([N+](=O)[O-])c1 (single isomer, unassigned) [Example 24] | -79 | 
COC(=O)C1=C(C)NC(C)=C(C(=O)OCC2(CN3CCN(C)CC3)CCCCC2)C1c1cccc([N+](=O)[O-])c1 (racemic) [Example 11] | -74 | 
COC(=O)C1=C(C)NC(C)=C(C(=O)OCC2(CN3CCOCC3)CCCCC2)C1c1cccc([N+](=O)[O-])c1 (single isomer, unassigned) [Example 23] | -87 | 
COC(=O)C1=C(C)NC(C)=C(C(=O)OCC2(CN(C)Cc3ccccc3Cl)CCCCC2)C1c1cccc([N+](=O)[O-])c1 (racemic) [Example 16] | -120 | 
COC(=O)C1=C(C)NC(C)=C(C(=O)OCCN(C)Cc2ccccc2)C1c1cccc([N+](=O)[O-])c1 (stereo not drawn) [Nicardipine, nicardipine, reference compound] | -77 | IC50 (thoracic aorta): 6.8 nM; LD50 (in vivo; medium DMSO): 190 mg/kg; ED (40 mmHg decrease) [2, 3]: 2.6 mg/kg; T1/2(dose) ([2]; oral dose 10 mg/kg): 4.5 hr(10mg/kg)*
1,4-dihydro-2,6-dimethyl-4-(3'-nitrophenyl)-3,5-pyridinedicarboxylic acid methyl (1-piperidinylmethylcyclohexyl)methyl ester hydrochloride [Example 2] | -89 | 
